Columns and labels:
[1] = target: D(2) dopamine receptor (Homo sapiens, UniProt P14416); assay: Displacement of [3H]-raclopride from human D2long receptor expressed in HEK293Galpha15 cells after 120 mins by scintillation counting analysis; type: cell-based
[2] = species: Homo sapiens; assay: Selectivity index, ratio of Ki for human D2long receptor to Ki for human D3 receptor
[3] = target: D(3) dopamine receptor (Homo sapiens, UniProt P35462); assay: Displacement of [3H]-raclopride from human D3 receptor expressed in CHO-K1 cells after 120 mins by scintillation counting analysis; type: cell-based
Chain of D(3) dopamine receptor (P35462 whole entry): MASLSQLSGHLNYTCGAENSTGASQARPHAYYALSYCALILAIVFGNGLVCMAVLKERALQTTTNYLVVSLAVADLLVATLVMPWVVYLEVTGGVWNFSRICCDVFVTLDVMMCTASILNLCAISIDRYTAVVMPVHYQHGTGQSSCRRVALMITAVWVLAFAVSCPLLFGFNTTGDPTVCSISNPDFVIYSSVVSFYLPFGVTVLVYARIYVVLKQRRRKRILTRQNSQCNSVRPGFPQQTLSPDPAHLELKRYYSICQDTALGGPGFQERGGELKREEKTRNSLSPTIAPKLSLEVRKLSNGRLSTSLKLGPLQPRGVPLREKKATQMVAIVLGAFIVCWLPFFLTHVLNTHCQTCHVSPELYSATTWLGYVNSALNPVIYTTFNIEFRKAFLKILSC

Chain of D(2) dopamine receptor (P14416 whole entry): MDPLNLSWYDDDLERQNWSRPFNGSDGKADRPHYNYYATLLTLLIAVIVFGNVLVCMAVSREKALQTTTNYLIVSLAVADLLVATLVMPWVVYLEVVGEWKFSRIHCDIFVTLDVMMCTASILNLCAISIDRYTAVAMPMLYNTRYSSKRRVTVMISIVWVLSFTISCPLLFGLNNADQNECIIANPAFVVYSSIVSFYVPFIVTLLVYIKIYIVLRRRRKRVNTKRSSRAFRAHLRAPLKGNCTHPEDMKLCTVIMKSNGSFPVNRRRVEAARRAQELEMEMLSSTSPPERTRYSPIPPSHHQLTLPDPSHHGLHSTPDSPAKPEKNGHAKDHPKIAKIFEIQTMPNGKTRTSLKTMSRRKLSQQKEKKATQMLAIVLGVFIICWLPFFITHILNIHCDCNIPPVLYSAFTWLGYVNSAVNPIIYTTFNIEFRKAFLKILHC

Question: How did the Ki [1] turn out when `N#Cc1cc(N2CCN(CC[C@H]3CC[C@H](NC(N)=O)CC3)CC2)cc(C(F)(F)F)c1` was run?
Answer: 30 nM

Question: And the Ratio Ki [2]?
Answer: 39

Question: What about the Ki [3] of the same molecule?
Answer: 0.75 nM

Question: Which results are given for `N#Cc1cc(N2CCN(CC[C@H]3CC[C@H](NC(=O)CN)CC3)CC2)cc(C(F)(F)F)c1`?
Answer: Ki [1]: 5.4 nM; Ratio Ki [2]: 9; Ki [3]: 0.62 nM

Question: What does the source list for `N#Cc1cc(N2CCN(CC[C@H]3CC[C@H](NS(N)(=O)=O)CC3)CC2)cc(C(F)(F)F)c1`?
Answer: Ki [1]: 37 nM; Ratio Ki [2]: 55; Ki [3]: 0.67 nM
